According to paper PMC11103274 (Journal of the American Chemical Society, 2023):
Read-outs that look alike come from different tables or passages of the source. Blank lines part the entries; values can stand above or below the compound they belong to.

Assays:
[1] = molecular target: T1, human serine racemase (hSR) (Homo sapiens, UniProt Q9GZT4); conditions: cited from earlier work
T1 sequence (Q9GZT4 1-340): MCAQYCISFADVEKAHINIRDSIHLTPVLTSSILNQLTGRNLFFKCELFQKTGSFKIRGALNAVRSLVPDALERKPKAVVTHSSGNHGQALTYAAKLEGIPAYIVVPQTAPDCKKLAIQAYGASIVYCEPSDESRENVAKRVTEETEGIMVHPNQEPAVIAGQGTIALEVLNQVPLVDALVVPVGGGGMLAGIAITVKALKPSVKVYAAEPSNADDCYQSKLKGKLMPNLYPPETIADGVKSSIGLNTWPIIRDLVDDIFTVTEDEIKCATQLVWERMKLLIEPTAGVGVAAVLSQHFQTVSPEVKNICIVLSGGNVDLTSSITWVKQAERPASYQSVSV

[2] = molecular target: T1, human serine racemase (hSR); assay: 13C/2H-isotopic crosstalk NMR dual function assay; conditions: for IC50: 13C/2H crosstalk NMR assay
[3] = molecular target: T1, human serine racemase (hSR); assay: steady state kinetic analysis, coupled UV-vis assay for β-elimination; assay type: biochemical
[4] = molecular target: T2, human serine racemase (hSR), allosteric ATP site (Homo sapiens, UniProt Q9GZT4); assay: steady state competition against ATP, L-Ser held constant at 30 mM; assay type: biochemical; conditions: L-Ser constant at 30 mM
T2 sequence (Q9GZT4 1-340): T1 sequence (Q9GZT4 1-340)

[5] = solubility under assay conditions; assay type: physicochemical
[6] = read-out: IC50(H/D-exchange), L-Ser 30 mM
[7] = read-out: IC50(β-elimination), positive controls

Compound: N[C@H](C(=O)O)[C@@H](O)C(=O)O [L-EHA, L-erythro-β-hydroxy-aspartate]
- Ki ([1]; literature, most potent inhibitors yet identified): ~30 µM

Compound: NC(=O)C1=CN([C@@H]2O[C@H](COP(=O)(O)O)[C@@H](O)[C@H]2O)C=CC1 [NMNH, nicotinamide mononucleotide, reduced form]
- mode of inhibition with respect to substrate ([1]; ref Mozzarelli and co-workers): non-competitive inhibition

- IC50 [2, 6]: 89 ± 35 µM
- IC50 [2, 7]: 39000 ± 2000 µM
Compound: O=C(O)CP(=O)(O)O [compound 1, phosphonoacetate, reference compound]

Compound: CCOP(=O)(CC(=O)O)OCC [compound 2, diethyl phosphonate acetate, reference compound]
- IC50 ([2]; read-out: IC50(H/D-exchange), positive controls): 95000 ± 10000 µM
- IC50 [2, 7]: 96000 ± 19000 µM

Compound: O=C(O)C(Cl)(Cl)C(=O)O [dichloromalonate]
- Ki [1]: ~20 µM

Compound: O=C(O)CC(=O)O [malonate]
- Ki ([1]; ref 33a): 20 to 120 µM

- Ki ([3]; read-out: Ki (L-SOS elim), β-elimination of L-serine-O-sulfate): 12 ± 4 µM
- Ki ([3]; read-out: Ki (L-Ser elim), β-elimination of L-Ser): 44 ± 6 µM
- mode of inhibition vs. substrate ([3]; steady state kinetics): non-competitive inhibition
- inhibition in the NMR screen ([2]; 1 mM): complete inhibition
- Hill coefficient of dose-response curve ([2]; NMR assay): ~ 2
- IC50 [2, 6]: 45 ± 6 µM
- IC50 ([2]; read-out: IC50(β-elimination), L-Ser 30 mM): 36 ± 10 µM
- relative solubility [5]: more soluble than the N-alkyl congeners
Compound: N-H indolo-chroman-2,4-dione [compound 10]
- mode of inhibition vs. ATP [4]: competing with ATP for the allosteric site
